Values of other authors in patent US20060177438A1, “Methods of altering absorption of hydrophobic compounds” (New England Medical Center, priority 2005, published 2006).

Conditions: cited from earlier work

CC(C)CCC[C@@H](C)[C@H]1CC[C@H]2[C@@H]3CC=C4C[C@@H](O)CC[C@]4(C)[C@H]3CC[C@]12C [cholesterol]
dietary cholesterol absorbed by the human intestine: 34-57%
